Assay results published in publication PMC8683085, “Serine ADP-ribosylation marks nucleosomes for ALC1-dependent chromatin remodeling” (eLife, 2021).
Like-named read-outs stand apart in the source and are kept apart here.

What was measured:
[1] = target: T1, Af1521 macrodomain (fused to rabbit Fc tag) (Archaeoglobus fulgidus, UniProt O28751); assay: Fluorescence polarization binding of fluorescein-labeled ADP-ribosylated histone peptides to the Af1521 macrodomain (pan-ADP-ribose detection reagent); settings: fluorescein-labeled peptide 2 nM, reagent titrated 0-2000 nM (4000 nM for mono-/di-ADPr), 25 mM Tris pH 7.5, 100 mM NaCl, 2 mM MgCl2, 0.001% Triton X100, 1 mM DTT, one-site specific binding fit, n = 3, read-out: Kd,app
T1 construct: Af1521 macrodomain fused to rabbit Fc tag, MilliporeSigma; purchased MilliporeSigma
T1 sequence (O28751 1-192): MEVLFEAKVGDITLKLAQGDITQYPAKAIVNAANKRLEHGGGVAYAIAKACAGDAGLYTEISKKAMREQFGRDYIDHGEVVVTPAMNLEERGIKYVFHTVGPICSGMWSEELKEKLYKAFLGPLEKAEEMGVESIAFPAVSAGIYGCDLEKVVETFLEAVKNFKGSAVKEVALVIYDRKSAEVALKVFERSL

ALC1 macrodomain [2] = target: T2, ALC1 macrodomain (Homo sapiens, UniProt Q86WJ1); assay: Fluorescence polarization binding of fluorescein-labeled ADP-ribosylated histone peptides to the ALC1 macrodomain
T2 construct: A fragment encoding amino acids 636–878, corresponding to the macrodomain; 6xHis-SUMO (N, cleaved yes); made in house; host or cells: E. coli Rosetta2 (DE3)
T2 sequence (Q86WJ1 636-878): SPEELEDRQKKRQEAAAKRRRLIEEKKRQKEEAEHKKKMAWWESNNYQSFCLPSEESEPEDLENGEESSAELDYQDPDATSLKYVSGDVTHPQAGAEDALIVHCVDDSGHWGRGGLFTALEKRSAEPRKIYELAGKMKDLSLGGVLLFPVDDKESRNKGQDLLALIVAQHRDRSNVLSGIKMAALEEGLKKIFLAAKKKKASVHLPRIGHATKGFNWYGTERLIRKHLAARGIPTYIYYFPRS
Description: Each fluorescently-labeled H2B (unmodified, mono-, di-, tri-, and tetra-ADP-ribose at H2BS6) and H3 peptide (unmodified, mono-, di-, tri-, tetra-, or penta-ADP-ribose at H3S10) was diluted to 2 nM in a buffer containing 25 mM Tris, pH 7.5, 100 mM NaCl, 2 mM MgCl2, 0.001% Triton X100, and 1 mM DTT. Note, H3 elongates more efficiently than H2B and so the penta-ADP-ribosylated species could be isolated for this peptide. Peptide concentration was calculated via fluorescein extinction coefficient (A480 = 70,000). To analyze peptide:pan-ADP-ribose detection reagent (Af1521 macrodomain fused to rabbit Fc tag, MilliporeSigma) interaction, the pan-ADP-ribose detection reagent was titrated into each peptide to final concentrations ranging from 0 to 2000 nM (points represent 3 x dilutions starting from 2000 nM; a higher concentration of 4000 nM was also included for mono- and di-ADP-ribosylated peptides). To analyze peptide:ALC1-macrodomain interaction, the ALC1-macrodomain was titrated into each peptide to final concentrations ranging from 0 to 3000 nM (points represent 3 x dilutions starting from 3000 nM). Reactions were added to a black, flat-bottom 96-well plate (Corning Costar) and analyzed on a BioTek Cytation five imager equipped with a Green FP filter set (excitation: 485 nm, emission: 528 nm). […]

ALC1 = target: T3, ALC1 (Homo sapiens, UniProt Q86WJ1); assay: Restriction enzyme accessibility (REA) nucleosome remodeling assay, single substrate, recombinant ALC1; type: biochemical; settings: for k, ALC1 remodeling rate constant on unmodified nucleosome in the presence of free ADP-ribosylated peptide: REA assay, 4 nM ALC1, unmodified nucleosome 20 nM, peptide 40 nM, 2 mM ATP, one-phase exponential decay fit, n = 3
T3 sequence (Q86WJ1 1-897): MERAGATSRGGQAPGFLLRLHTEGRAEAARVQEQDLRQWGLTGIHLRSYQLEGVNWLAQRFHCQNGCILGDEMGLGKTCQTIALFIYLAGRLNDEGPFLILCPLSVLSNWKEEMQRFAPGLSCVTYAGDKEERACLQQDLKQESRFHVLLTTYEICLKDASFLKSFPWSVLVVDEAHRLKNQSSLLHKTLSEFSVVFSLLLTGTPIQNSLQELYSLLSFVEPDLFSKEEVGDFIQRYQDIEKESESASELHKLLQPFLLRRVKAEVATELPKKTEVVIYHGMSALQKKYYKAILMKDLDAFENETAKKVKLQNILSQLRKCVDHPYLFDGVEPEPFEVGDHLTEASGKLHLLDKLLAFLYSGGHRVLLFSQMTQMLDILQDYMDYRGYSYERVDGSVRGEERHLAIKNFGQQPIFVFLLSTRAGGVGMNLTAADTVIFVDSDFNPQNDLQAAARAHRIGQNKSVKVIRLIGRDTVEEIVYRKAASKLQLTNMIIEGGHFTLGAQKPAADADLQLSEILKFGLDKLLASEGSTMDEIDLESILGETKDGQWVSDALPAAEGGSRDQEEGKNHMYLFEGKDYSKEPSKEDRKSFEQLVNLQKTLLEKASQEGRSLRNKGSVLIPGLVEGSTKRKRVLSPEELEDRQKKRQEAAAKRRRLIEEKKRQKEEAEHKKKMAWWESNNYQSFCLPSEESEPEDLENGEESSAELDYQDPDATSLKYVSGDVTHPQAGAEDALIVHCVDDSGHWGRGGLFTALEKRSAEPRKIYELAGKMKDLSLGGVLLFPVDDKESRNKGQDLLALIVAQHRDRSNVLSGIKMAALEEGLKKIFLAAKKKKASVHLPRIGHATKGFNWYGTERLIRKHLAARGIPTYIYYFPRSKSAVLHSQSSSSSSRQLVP
Description: REA assays and analysis were performed as previously described ([Dann et al., 2017]) with several modifications. Nucleosome remodeling reactions (25 μL) were carried out in REA Buffer (12 mM HEPES, pH 7.9, 4 mM Tris, pH 7.5, 60 mM KCl, 10 mM MgCl2, 10% glycerol, and 0.02% NP-40) including 1 μL of PstI (NEB, at 100,000 U/mL), 2 mM ATP (Sigma-Aldrich), and final concentrations of 4 nM ALC1 or 10 nM CHD4 and 20 nM of the desired nucleosome substrate. The reaction was incubated for 5 min prior to addition of chromatin remodeler to ensure that any trace amount of free DNA from the nucleosome assembly was digested prior to initiating the reaction. This is required to ensure that free DNA digestion can be assigned as background activity and is not interpreted as enzyme-dependent nucleosome remodeling in data processing. To each reaction, 37.5 μL of Quench Buffer (20 mM Tris, pH 7.5, 70 mM EDTA, pH 8, 2% SDS, 10% glycerol) was added at time points of 0, 3, 6, 18, 36, and 60 min. Samples were then deproteinized with 30 U/mL proteinase K (NEB) for 1 h at 37 °C. DNA purification was performed using the Qiagen PCR purification kit following manufacturer’s protocols. Purple Gel Loading Dye (6 X, NEB) was added to a final concentration of 1 X to the quenched reaction and samples were loaded onto a 5% TBE gel and run for 60 min at 150 volts in 0.5 X TBE Buffer (BioRad). Gels were stained with ethidium bromide and imaged on a BioRad ChemiDoc. Gel densitometry measurements were performed using ImageJ. For each lane, the total densitometry signal was calculated by adding the densitometry values corresponding to the PstI-digested species (lower band) and undigested species (upper band). The fraction unremodeled value for each lane was then calculated using the following formula: fraction unremodeled= signalundigested/signalundigested+ signaldigested […]

ALC1 macrodomain [3] = target: T2, ALC1 macrodomain; settings: free ADP-ribose molecules; ref Singh et al., 2017; cited from earlier work
Source text: We therefore chose to pursue ALC1 for our initial ADP-ribosylated histone peptide interaction studies. Nine fluorescently-labeled, ADP-ribosylated histone peptides (H2BS6ADPr1-4 and H3S10ADPr ...

**Q.** For `CC(C)C[C@H](NC(=O)[C@H](CCC(N)=O)NC(=O)[C@H](CCCCN)NC(=O)[C@H](CCCNC(=N)N)NC(=O)[C@@H]1CCCN1C(=O)[C@H](C)NC(=O)[C@H](CCCCN)NC(=O)CNC(=O)CNC(=O)[C@@H](NC(=O)[C@H](CO[C@H]1O[C@H](COP(=O)(O)OP(=O)(O)OC[C@H]2O[C@@H](n3cnc4c(N)ncnc43)[C@H](O[C@H]3O[C@H](COP(=O)(O)OP(=O)(O)OC[C@H]4O[C@@H](n5cnc6c(N)ncnc65)[C@H](O[C@H]5O[C@H](COP(=O)(O)OP(=O)(O)OC[C@H]6O[C@@H](n7cnc8c(N)ncnc87)[C@H](O[C@H]7O[C@H](COP(=O)(O)OP(=O)(O)OC[C@H]8O[C@@H](n9cnc%10c(N)ncnc%109)[C@H](O[C@H]9O[C@H](COP(=O)(O)OP(=O)(O)OC[C@H]%10O[C@@H](n%11cnc%12c(N)ncnc%12%11)[C@H](O)[C@@H]%10O)[C@@H](O)[C@H]9O)[C@@H]8O)[C@@H](O)[C@H]7O)[C@@H]6O)[C@@H](O)[C@H]5O)[C@@H]4O)[C@@H](O)[C@H]3O)[C@@H]2O)[C@@H](O)[C@H]1O)NC(=O)[C@H](CCCCN)NC(=O)[C@H](CCCNC(=N)N)NC(=O)[C@H](C)NC(=O)[C@@H](NC(=O)[C@H](CCC(N)=O)NC(=O)[C@H](CCCCN)NC(=O)[C@@H](NC(=O)[C@H](CCCNC(=N)N)NC(=O)[C@H](C)NC(=O)c1ccc2c(c1)C(=O)OC21c2ccc(O)cc2Oc2cc(O)ccc21)[C@@H](C)O)[C@@H](C)O)[C@@H](C)O)C(N)=O` [H3S10ADPr5 peptide], which Kd [1] is on record?
**A.** 42.5 nM

**Q.** And the Kd (ALC1 macrodomain [2])?
**A.** 27.9 nM

**Q.** Which “k, ALC1 remodeling rate constant on unmodified nucleosome in the presence of free ADP-ribosylated peptide” value (ALC1) does the source give for “H2BS6ADPr4 peptide: H2B (1-16) peptide with tetra-ADP-ribose at S6; fluorescein-labeled in FP assays ({5(6)‑carboxyfluorescein}-PEPAKS(tetra‑ADP‑ribose)APAPKKGSKK-NH2)” here?
**A.** 1.886e-05 min⁻¹

**Q.** What does the source list for “H3S10ADPr4 peptide: H3 (1–20) peptide with tetra-ADP-ribose at S10; fluorescein-labeled in FP assays”?
**A.** stimulation of ALC1-dependent remodeling of unmodified nucleosomes by the freely diffusing peptide (ALC1; ALC1, unmodified nucleosome 20 nM, peptide 10, 40 or 200 nM): unable to appreciably stimulate; k, ALC1 remodeling rate constant on unmodified nucleosome in the presence of free ADP-ribosylated peptide (ALC1): 8.323e-05 min⁻¹

**Q.** For tri-ADP-ribose, which Kd (ALC1 macrodomain [3]) is on record?
**A.** ~10 nM
